Assay results: ChEMBL document CHEMBL3885881, “DrugMatrix”

Species: Rattus norvegicus
Experiment: DrugMatrix - Regimen: Daily Repeat
Format: toxicity, organism-based, Sprague-Dawley
Parameters: regimen Daily Repeat, gender Male, age 6-8 weeks
Conditions: in vivo, po, route oral GAVAGE, […]; for ABSOLUTE BASOPHIL / ABSOLUTE EOSINOPHIL / ABSOLUTE LYMPHOCYTE / ABSOLUTE MONOCYTE / ABSOLUTE SEGMENTED NEUTROPHIL / BASOPHIL / EOSINOPHIL / ERYTHROCYTE COUNT / HEMATOCRIT / HEMOGLOBIN / LEUKOCYTE COUNT / LYMPHOCYTE / MEAN CORPUSCULAR HEMOGLOBIN / MEAN CORPUSCULAR HEMOGLOBIN CONCENTRATION / MEAN CORPUSCULAR VOLUME / MONOCYTE / NEUTROPHIL / NUCLEATED RED BLOOD CELLS / PLATELET COUNT: tissue Blood; for ALANINE AMINOTRANSFERASE / ALBUMIN / ALKALINE PHOSPHATASE / ASPARTATE AMINOTRANSFERASE / BLOOD UREA NITROGEN / CARBON DIOXIDE / CHLORIDE / CHOLESTEROL / CREATINE PHOSPHOKINASE / CREATININE / GLUCOSE / LACTATE DEHYDROGENASE / LIPASE / PHOSPHORUS / POTASSIUM / SODIUM / TOTAL BILIRUBIN / TOTAL PROTEIN / URIC ACID: tissue Plasma
[1] = 3 mg/kg, 120 h, dose level Low, time 5 day
[2] = 775 mg/kg, 72 h, dose level High, time 3 day
[3] = 775 mg/kg, 120 h, dose level High, time 5 day

Compound: CS(=O)(=O)c1ccc(C2=C(c3ccccc3)C(=O)OC2)cc1 [ROFECOXIB]
- ABSOLUTE BASOPHIL [1]: 0 CELLS/uL
- ABSOLUTE EOSINOPHIL [1]: 0 CELLS/uL
- ABSOLUTE LYMPHOCYTE [1]: 7546 CELLS/uL
- ABSOLUTE MONOCYTE [1]: 71.67 CELLS/uL
- ABSOLUTE SEGMENTED NEUTROPHIL [1]: 782.33 CELLS/uL
- BASOPHIL [1]: 0%
- EOSINOPHIL [1]: 0%
- ERYTHROCYTE COUNT [1]: 5.17 x10E6/uL
- HEMATOCRIT [1]: 33.27%
- HEMOGLOBIN [1]: 13.07 G/DL
- LEUKOCYTE COUNT [1]: 8.4 x10E3/uL
- LYMPHOCYTE [1]: 90.67%
- MEAN CORPUSCULAR HEMOGLOBIN [1]: 25.27 pg
- MEAN CORPUSCULAR HEMOGLOBIN CONCENTRATION [1]: 39.27 G/DL
- MEAN CORPUSCULAR VOLUME [1]: 64.33 fL
- MONOCYTE [1]: 1%
- NEUTROPHIL [1]: 8.33%
- NUCLEATED RED BLOOD CELLS [1]: 0 /100WBC
- PLATELET COUNT [1]: 1212.67 x10E3/uL
- ALANINE AMINOTRANSFERASE [1]: 57.33 u/L
- ALBUMIN [1]: 4.17 G/DL
- ALKALINE PHOSPHATASE [1]: 300.67 u/L
- ASPARTATE AMINOTRANSFERASE [1]: 85.67 u/L
- BLOOD UREA NITROGEN [1]: 12.33 mg/dL
- CARBON DIOXIDE [1]: 27.67 mmol/L
- CHLORIDE [1]: 100.67 MEQ/L
- CHOLESTEROL [1]: 62 mg/dL
- CREATINE PHOSPHOKINASE [1]: 325.33 u/L
- CREATININE [1]: 0.22 mg/dL
- GLUCOSE [1]: 165 mg/dL
- LACTATE DEHYDROGENASE [1]: 77 u/L
- LIPASE [1]: 11.33 u/L
- PHOSPHORUS [1]: 9.4 mg/dL
- POTASSIUM [1]: 6.14 MEQ/L
- SODIUM [1]: 145.9 MEQ/L
- TOTAL BILIRUBIN [1]: 0.13 mg/dL
- TOTAL PROTEIN [1]: 6.1 G/DL
- URIC ACID [1]: 0.73 mg/dL
- ABSOLUTE BASOPHIL [2]: 0 CELLS/uL
- ABSOLUTE EOSINOPHIL [2]: 0 CELLS/uL
- ABSOLUTE LYMPHOCYTE [2]: 11625.33 CELLS/uL
- ABSOLUTE MONOCYTE [2]: 298.67 CELLS/uL
- ABSOLUTE SEGMENTED NEUTROPHIL [2]: 1009.33 CELLS/uL
- BASOPHIL [2]: 0%
- EOSINOPHIL [2]: 0%
- ERYTHROCYTE COUNT [2]: 5.13 x10E6/uL
- HEMATOCRIT [2]: 32.27%
- HEMOGLOBIN [2]: 12.53 G/DL
- LEUKOCYTE COUNT [2]: 12.93 x10E3/uL
- LYMPHOCYTE [2]: 90%
- MEAN CORPUSCULAR HEMOGLOBIN [2]: 24.43 pg
- MEAN CORPUSCULAR HEMOGLOBIN CONCENTRATION [2]: 38.83 G/DL
- MEAN CORPUSCULAR VOLUME [2]: 62.93 fL
- MONOCYTE [2]: 2.33%
- NEUTROPHIL [2]: 7.67%
- NUCLEATED RED BLOOD CELLS [2]: 0.33 /100WBC
- PLATELET COUNT [2]: 877.67 x10E3/uL
- ALANINE AMINOTRANSFERASE [2]: 55.33 u/L
- ALBUMIN [2]: 3.53 G/DL
- ALKALINE PHOSPHATASE [2]: 313.67 u/L
- ASPARTATE AMINOTRANSFERASE [2]: 81.33 u/L
- BLOOD UREA NITROGEN [2]: 14.33 mg/dL
- CARBON DIOXIDE [2]: 26.67 mmol/L
- CHLORIDE [2]: 99.33 MEQ/L
- CHOLESTEROL [2]: 77.67 mg/dL
- CREATINE PHOSPHOKINASE [2]: 192.67 u/L
- CREATININE [2]: 0.21 mg/dL
- GLUCOSE [2]: 185.67 mg/dL
- LACTATE DEHYDROGENASE [2]: 91.33 u/L
- LIPASE [2]: 22.33 u/L
- PHOSPHORUS [2]: 10.4 mg/dL
- POTASSIUM [2]: 5.68 MEQ/L
- SODIUM [2]: 144.1 MEQ/L
- TOTAL BILIRUBIN [2]: 0.1 mg/dL
- TOTAL PROTEIN [2]: 5.6 G/DL
- URIC ACID [2]: 0.87 mg/dL
- ABSOLUTE BASOPHIL [3]: 0 CELLS/uL
- ABSOLUTE EOSINOPHIL [3]: 72.67 CELLS/uL
- ABSOLUTE LYMPHOCYTE [3]: 8378 CELLS/uL
- ABSOLUTE MONOCYTE [3]: 35.33 CELLS/uL
- ABSOLUTE SEGMENTED NEUTROPHIL [3]: 1314 CELLS/uL
- BASOPHIL [3]: 0%
- EOSINOPHIL [3]: 0.67%
- ERYTHROCYTE COUNT [3]: 4.79 x10E6/uL
- HEMATOCRIT [3]: 30.33%
- HEMOGLOBIN [3]: 11.77 G/DL
- LEUKOCYTE COUNT [3]: 9.8 x10E3/uL
- LYMPHOCYTE [3]: 84%
- MEAN CORPUSCULAR HEMOGLOBIN [3]: 24.53 pg
- MEAN CORPUSCULAR HEMOGLOBIN CONCENTRATION [3]: 38.8 G/DL
- MEAN CORPUSCULAR VOLUME [3]: 63.33 fL
- MONOCYTE [3]: 0.67%
- NEUTROPHIL [3]: 14.67%
- NUCLEATED RED BLOOD CELLS [3]: 0 /100WBC
- PLATELET COUNT [3]: 1142 x10E3/uL
- ALANINE AMINOTRANSFERASE [3]: 51 u/L
- ALBUMIN [3]: 3.33 G/DL
- ALKALINE PHOSPHATASE [3]: 298.67 u/L
- ASPARTATE AMINOTRANSFERASE [3]: 77.33 u/L
- BLOOD UREA NITROGEN [3]: 12.67 mg/dL
- CARBON DIOXIDE [3]: 28 mmol/L
- CHLORIDE [3]: 99.67 MEQ/L
- CHOLESTEROL [3]: 80 mg/dL
- CREATINE PHOSPHOKINASE [3]: 192.67 u/L
- CREATININE [3]: 0.34 mg/dL
- GLUCOSE [3]: 160.67 mg/dL
- LACTATE DEHYDROGENASE [3]: 72 u/L
- LIPASE [3]: 12.67 u/L
- PHOSPHORUS [3]: 9.2 mg/dL
- POTASSIUM [3]: 5.83 MEQ/L
- SODIUM [3]: 144.83 MEQ/L
- TOTAL BILIRUBIN [3]: 0.1 mg/dL
- TOTAL PROTEIN [3]: 5.6 G/DL
- URIC ACID [3]: 0.7 mg/dL
